# Experiments:
# [1] = target: T1, hMTH1 (human MutT homolog 1) (Homo sapiens, UniProt P36639); assay: modified Malachite Green assay with inorganic pyrophosphatase; format: biochemical; parameters: gene NUDT1; E. coli-optimised cDNA in pET28a(+), expressed in E. coli BL21(DE3); His-tag removed with thrombin; monomer
# [2] = target: T1, hMTH1 (human MutT homolog 1); parameters: gene NUDT1; conditions: substrate dGTP 100 μM, 6 nM hMTH1, 10 mM Mg acetate, 1% DMSO, 22 °C, active site (crystal structure, metal free) buffer, no inhibition seen, bound not given
SMILES,IC50 [1],no inhibition [2]
C[C@]12Cc3c[nH]nc3C[C@@H]1CC[C@@H]1[C@@H]2CC[C@@]2(C)[C@H]1CC[C@]2(C)O [stanozolol],26 nM,–
C[C@]12CCC(=O)C[C@@H]1CC[C@@H]1[C@@H]2CC[C@]2(C)[C@@H](O)CC[C@@H]12 [Dihydrotestosterone],–,while DHT did not show any inhibition of hMTH1 (Fig. S1)

# Source: article PMC12519060, “The anabolic steroid stanozolol is a potent inhibitor of human MutT homolog 1” (Febs Letters, 2025)
